From US8198273B2, “Compounds and methods for kinase modulation, and indications therefor” (Plexxikon Inc., priority 2009, dated 2012)

Key:
B-Raf = B-Raf (Homo sapiens, UniProt P15056); experiment: B-Raf biochemical kinase inhibition (AlphaScreen, biotin-MEK1 substrate); conditions: 100 μM ATP
Method: Compounds to be tested are diluted in dimethyl sulfoxide to a concentration of 0.1 mM. These are serially diluted 15 μL into 30 μL of dimethyl sulfoxide seven times in 96 well plates for a total of 8 dilution points, and for each dilution point 1 μL is added to a well of an assay plate. […] The reaction is started with addition of 10 μL of 200 μM ATP (i.e. final 100 μM ATP). […] The plates are incubated for 3 hours at room temperature and read on Envision reader (Perkin Elmer). […] The signal vs. compound concentration is used to determine the IC50.

[1] = tested on: COLO205 colon adenocarcinoma cells (B-Raf V600E); experiment: COLO205 cell growth inhibition (ATPlite); format: cell-based; conditions: Homo sapiens, COLO 205, 72 h; COLO205, 3 days incubation
Procedure, shortened: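 Cells plated overnight, then exposed 3 days at 37° C to 8-point 1:3 compound dilutions topping at 10 μM final. Viability read as ATPlite luminescence, proportional to cell number; IC50 from luminescence versus concentration.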

CYP1A2 = molecular target: T1, CYP1A2 (Homo sapiens, UniProt P05177); experiment: CYP1A2 inhibition (fluorescent substrate); format: in vitro ADME; conditions: CYP1A2, CEC substrate; read-out: Cyp IC50 1A2
T1 sequence (P05177 1-516): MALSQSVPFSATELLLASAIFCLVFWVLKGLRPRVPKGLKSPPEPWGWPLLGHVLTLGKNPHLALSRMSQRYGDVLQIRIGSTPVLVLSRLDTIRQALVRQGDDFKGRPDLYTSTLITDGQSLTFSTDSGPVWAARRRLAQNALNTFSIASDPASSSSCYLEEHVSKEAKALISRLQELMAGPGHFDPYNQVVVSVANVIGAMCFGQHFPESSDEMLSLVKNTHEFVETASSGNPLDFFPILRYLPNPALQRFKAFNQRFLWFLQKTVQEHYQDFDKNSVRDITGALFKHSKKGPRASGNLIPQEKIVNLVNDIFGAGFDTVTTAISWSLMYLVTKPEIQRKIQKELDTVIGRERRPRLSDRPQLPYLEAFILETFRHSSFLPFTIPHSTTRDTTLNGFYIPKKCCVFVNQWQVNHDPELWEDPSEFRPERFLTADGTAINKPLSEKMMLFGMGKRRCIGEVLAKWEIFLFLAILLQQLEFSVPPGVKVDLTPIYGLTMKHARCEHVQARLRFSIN
Method: (§1) CYP (Cytochrome P450) enzymes are the major drug metabolizing enzymes present in the liver. The inhibition of CYP enzyme activity (IC50) for each of CYP1A2, CYP2C19, CYP2C9, CYP2D6, CYP3A4(BFC) and CYP3A4(BQ) is determined for compounds, where inhibition of metabolism of a known substrate leads to a decrease in the fluorescence of the metabolized product. The fluorescence of the product is monitored as a function of compound concentration.
(§2) Compounds are dissolved in dimethyl sulfoxide to a concentration of 100 mM. These are diluted 1 μL into 82 μL of acetonitrile. […] These are then serially diluted 1:1 (160 μL to 160 μL co-factor mix) for a total of 10 points. A 10 μL aliquot of this final mixture is dispensed into 384 well assay plates and incubated for 10 minutes at 37° C. […] Assay plates are incubated at 37° C. […] The signal versus compound concentration is used to determine the IC50. The enzymes and substrates for this assay are obtained from BD Biosciences.

CYP2C19 = CYP2C19 (Homo sapiens, UniProt P33261); experiment: CYP2C19 inhibition (fluorescent substrate); format: in vitro ADME; conditions: CYP2C19, CEC substrate; read-out: Cyp IC50 2C19
CYP2C19, sequence (P33261 whole entry): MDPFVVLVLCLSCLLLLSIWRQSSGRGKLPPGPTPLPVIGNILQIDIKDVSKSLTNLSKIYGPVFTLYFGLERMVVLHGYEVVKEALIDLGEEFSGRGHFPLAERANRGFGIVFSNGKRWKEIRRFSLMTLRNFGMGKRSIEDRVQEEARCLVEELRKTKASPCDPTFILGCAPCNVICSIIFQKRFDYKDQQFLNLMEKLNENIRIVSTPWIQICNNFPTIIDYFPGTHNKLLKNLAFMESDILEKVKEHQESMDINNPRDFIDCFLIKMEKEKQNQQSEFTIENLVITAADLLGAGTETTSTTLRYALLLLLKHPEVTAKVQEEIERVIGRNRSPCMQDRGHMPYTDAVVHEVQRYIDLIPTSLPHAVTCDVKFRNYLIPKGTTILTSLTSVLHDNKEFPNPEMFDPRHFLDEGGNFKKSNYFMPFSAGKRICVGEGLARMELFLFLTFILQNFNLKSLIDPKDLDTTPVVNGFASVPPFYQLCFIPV
Method: as §1, §2

B-Raf, sequence (P15056 whole entry): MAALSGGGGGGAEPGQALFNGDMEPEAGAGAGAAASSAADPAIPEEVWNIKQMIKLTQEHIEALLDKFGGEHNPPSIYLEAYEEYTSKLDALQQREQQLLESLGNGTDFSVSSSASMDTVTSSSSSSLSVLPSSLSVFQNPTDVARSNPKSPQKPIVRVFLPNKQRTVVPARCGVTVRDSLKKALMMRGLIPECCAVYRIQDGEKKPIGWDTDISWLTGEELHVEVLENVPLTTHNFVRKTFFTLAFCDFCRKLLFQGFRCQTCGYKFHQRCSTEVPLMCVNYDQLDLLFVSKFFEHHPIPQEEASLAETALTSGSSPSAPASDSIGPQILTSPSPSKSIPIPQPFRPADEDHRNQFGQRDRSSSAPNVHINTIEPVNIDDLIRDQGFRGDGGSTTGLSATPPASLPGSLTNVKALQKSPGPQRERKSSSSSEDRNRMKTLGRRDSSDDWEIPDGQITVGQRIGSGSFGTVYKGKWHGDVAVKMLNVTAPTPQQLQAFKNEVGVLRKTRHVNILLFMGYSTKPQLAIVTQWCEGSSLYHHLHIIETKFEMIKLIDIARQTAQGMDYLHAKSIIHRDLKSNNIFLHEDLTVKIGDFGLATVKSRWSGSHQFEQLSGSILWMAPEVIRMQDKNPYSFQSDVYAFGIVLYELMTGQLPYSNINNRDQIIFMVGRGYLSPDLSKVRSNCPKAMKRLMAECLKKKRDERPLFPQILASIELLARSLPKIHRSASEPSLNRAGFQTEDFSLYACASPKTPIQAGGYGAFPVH

| SMILES | IC50 (B-Raf) [µM] | IC50 [1] [µM] | IC50 (CYP1A2) [µM] | IC50 (CYP2C19) [µM] |
| --- | --- | --- | --- | --- |
| N#Cc1cnc2[nH]cc(C(=O)c3c(F)ccc(NS(=O)(=O)c4ccccc4)c3F)c2c1 [P-2046, N-[3-(5-Cyano-1H-pyrrolo[2,3-b]pyridine-3-carbonyl)-2,4-difluoro-phenyl]-benzenesulfonamide] | < 0.01 | < 1 | > 10 | < 5 |
| O=C(c1c(F)ccc(NS(=O)(=O)c2cccc(F)c2)c1F)c1c[nH]c2nccc(Cl)c12 [P-2019, N-[3-(4-Chloro-1H-pyrrolo[2,3-b]pyridine-3-carbonyl)-2,4-difluoro-phenyl]-3-fluoro-benzenesulfonamide] | < 0.01 | < 5 | > 10 | > 10 |
| N#Cc1ccnc2[nH]cc(C(=O)c3c(F)ccc(NS(=O)(=O)c4ccccc4F)c3F)c12 [P-2020, N-[3-(4-Cyano-1H-pyrrolo[2,3-b]pyridine-3-carbonyl)-2,4-difluoro-phenyl]-2-fluoro-benzenesulfonamide] | < 0.01 | – | > 10 | > 10 |
| N#Cc1ccnc2[nH]cc(C(=O)c3c(F)ccc(NS(=O)(=O)c4cccnc4)c3F)c12 [P-2077, Pyridine-3-sulfonic acid [3-(4-cyano-1H-pyrrolo[2,3-b]pyridine-3-carbonyl)-2,4-difluoro-phenyl]-amide] | < 0.01 | – | > 10 | > 10 |
| CCCS(=O)(=O)Nc1ccc(F)c(C(=O)c2c[nH]c3ncc(-c4ccc(OC)nc4OC)cc23)c1F [P-2184, Propane-1-sulfonic acid {3-[5-(2,6-dimethoxy-pyridin-3-yl)-1H-pyrrolo[2,3-b]pyridine-3-carbonyl]-2,4-difluoro-phenyl}-amide] | < 0.1 | – | > 10 | > 10 |
| CCCS(=O)(=O)Nc1ccc(F)c(C(=O)c2c[nH]c3ncc(-c4ccc(C(=O)NC5CC5)nc4)cc23)c1F [P-2181, 5-{3-[2,6-Difluoro-3-(propane-1-sulfonylamino)-benzoyl]-1H-pyrrolo[2,3-b]pyridin-5-yl}-pyridine-2-carboxylic acid cyclopropylamide] | < 0.01 | – | > 10 | > 10 |
| N#Cc1ccnc2[nH]cc(C(=O)c3c(F)ccc(NS(=O)(=O)c4c(F)cccc4F)c3F)c12 [P-2037, N-[3-(4-Cyano-1H-pyrrolo[2,3-b]pyridine-3-carbonyl)-2,4-difluoro-phenyl]-2,6-difluoro-benzenesulfonamide] | < 0.1 | – | > 10 | > 10 |
| N#Cc1cnc2[nH]cc(C(=O)c3cccc(NS(=O)(=O)c4c(F)cccc4F)c3F)c2c1 [P-2054, N-[3-(5-Cyano-1H-pyrrolo[2,3-b]pyridine-3-carbonyl)-2-fluoro-phenyl]-2,6-difluoro-benzenesulfonamide] | < 0.1 | – | > 10 | > 10 |
| CCCS(=O)(=O)Nc1ccc(F)c(C(=O)c2c[nH]c3ncc(-c4ccc(C(=O)NC)nc4)cc23)c1F [P-2180, 5-{3-[2,6-Difluoro-3-(propane-1-sulfonylamino)-benzoyl]-1H-pyrrolo[2,3-b]pyridin-5-yl}-pyridine-2-carboxylic acid methylamide] | < 0.01 | – | > 10 | 5 to 10 |
| N#Cc1cnc2[nH]cc(C(=O)c3cccc(NS(=O)(=O)c4ccccc4F)c3F)c2c1 [P-2051, N-[3-(5-Cyano-1H-pyrrolo[2,3-b]pyridine-3-carbonyl)-2-fluoro-phenyl]-2-fluoro-benzenesulfonamide] | < 0.1 | – | > 10 | > 10 |

The remaining lines, values ahead:

| IC50 (B-Raf) [µM] | IC50 [1] [µM] | IC50 (CYP1A2) [µM] | IC50 (CYP2C19) [µM] | SMILES |
| --- | --- | --- | --- | --- |
| < 0.01 | < 0.1 | > 10 | > 10 | CCCS(=O)(=O)Nc1ccc(F)c(C(=O)c2c[nH]c3ncc(-c4ccc(OCCN5CCOCC5)nc4)cc23)c1F [P-2232, Propane-1-sulfonic acid (2,4-difluoro-3-{5-[6-(2-morpholin-4-yl-ethoxy)-pyridin-3-yl]-1H-pyrrolo[2,3-b]pyridine-3-carbonyl}-phenyl)-amide] |
| < 0.1 | < 1 | > 10 | 5 to 10 | CCCS(=O)(=O)Nc1ccc(F)c(C(=O)c2c[nH]c3ncc(C#CCOC)cc23)c1F [P-2239, Propane-1-sulfonic acid {2,4-difluoro-3-[5-(3-methoxy-prop-1-ynyl)-1H-pyrrolo[2,3-b]pyridine-3-carbonyl]-phenyl}-amide] |
| < 0.01 | < 0.1 | > 10 | > 10 | CCCS(=O)(=O)Nc1ccc(F)c(C(=O)c2c[nH]c3ncc(-c4ccc(CCCOC)nc4)cc23)c1F [P-2226, Propane-1-sulfonic acid (2,4-difluoro-3-{5-[6-(3-methoxy-propyl)-pyridin-3-yl]-1H-pyrrolo[2,3-b]pyridine-3-carbonyl}-phenyl)-amide] |
| < 0.01 | – | > 10 | > 10 | CCCS(=O)(=O)Nc1ccc(F)c(C(=O)c2c[nH]c3ncc(-c4ccnc(F)c4)cc23)c1F [P-2192, Propane-1-sulfonic acid {2,4-difluoro-3-[5-(2-fluoro-pyridin-4-yl)-1H-pyrrolo[2,3-b]pyridine-3-carbonyl]-phenyl}-amide] |
| < 0.01 | – | > 10 | > 10 | CCCS(=O)(=O)Nc1ccc(F)c(C(=O)c2c[nH]c3ncc(-c4ccc(S(N)(=O)=O)cc4)cc23)c1F [P-2194, 4-{3-[2,6-Difluoro-3-(propane-1-sulfonylamino)-benzoyl]-1H-pyrrolo[2,3-b]pyridin-5-yl}-benzenesulfonamide] |
| < 0.1 | – | > 10 | > 10 | CCCS(=O)(=O)Nc1ccc(F)c(C(=O)c2c[nH]c3ncc(-c4cnc(OC)nc4OC)cc23)c1F [P-2199, Propane-1-sulfonic acid {3-[5-(2,4-dimethoxy-pyrimidin-5-yl)-1H-pyrrolo[2,3-b]pyridine-3-carbonyl]-2,4-difluoro-phenyl}-amide] |
| < 0.01 | – | > 10 | > 10 | CCCS(=O)(=O)Nc1ccc(F)c(C(=O)c2c[nH]c3ncc(-c4cccc(S(C)(=O)=O)c4)cc23)c1F [P-2228, Propane-1-sulfonic acid {2,4-difluoro-3-[5-(3-methanesulfonyl-phenyl)-1H-pyrrolo[2,3-b]pyridine-3-carbonyl]-phenyl}-amide] |
| < 0.01 | – | > 10 | > 10 | CCCS(=O)(=O)Nc1ccc(F)c(C(=O)c2c[nH]c3ncc(-c4cnc(N5CCOCC5)nc4)cc23)c1F [P-2197, Propane-1-sulfonic acid {2,4-difluoro-3-[5-(2-morpholin-4-yl-pyrimidin-5-yl)-1H-pyrrolo[2,3-b]pyridine-3-carbonyl]-phenyl}-amide] |
| < 0.1 | < 0.1 | > 10 | – | CCCS(=O)(=O)Nc1ccc(F)c(C(=O)c2c[nH]c3ncc(-c4ccc(S(=O)(=O)CC)cc4)cc23)c1F [P-2218, Propane-1-sulfonic acid {3-[5-(4-ethanesulfonyl-phenyl)-1H-pyrrolo[2,3-b]pyridine-3-carbonyl]-2,4-difluoro-phenyl}-amide] |
| < 0.01 | – | > 10 | > 10 | CCCS(=O)(=O)Nc1ccc(F)c(C(=O)c2c[nH]c3ncc(-c4cncc(S(C)(=O)=O)c4)cc23)c1F [P-2188, Propane-1-sulfonic acid {2,4-difluoro-3-[5-(5-methanesulfonyl-pyridin-3-yl)-1H-pyrrolo[2,3-b]pyridine-3-carbonyl]-phenyl}-amide] |
